Test results reported in patent EP0484785B1, “Use of xanthines for the preparation of a medicament effective for inhibiting the replication of human retroviruses” (HOECHST-ROUSSEL PHARMACEUTICALS INCORPORATED, priority 1990, dated 1992).
Read-outs that look alike come from different tables or passages of the source.

Assays:
Jurkat cells = format: cell-based; conditions: human, 7 days
Description: (§1) Human Jurkat cells (a CD4⁺ T-cell lymphoma line) were grown in RPMI-1640 supplemented with 10% fetal calf serum, penicillin, streptomycin and L-glutamine. HIV-1 was produced in Jurkat cells. During the log phase of growth, cell-free supernatant was harvested, tested for RT activity (according to the method of Dayton et al., Cell 1986, 44:941-947) and frozen in aliquots at -70°C until use. Jurkat cells were pretreated with pentoxifylline at various concentrations for 4 hours after which HIV-1 (10⁴ cpm units of RT activity) was added to the cultures. The cells remained in the appropriate concentration of pentoxifylline for a total of 7 days, at which point the RT activity was measured in cell-free supernatants. In parallel, cell viability was tested by trypan blue staining of uninfected Jurkat cells treated for 7 days with various concentrations of pentoxifylline. The results are expressed as a percent of control.

HIV-1 LTR = test: HIV-1 LTR-mediated gene expression, CAT activity in U38 cells; format: cell-based, human; set-up: CAT activity: unit not given here; conditions: for CAT activity: 2 days
Description: Down-regulation of gene expression mediated by the HIV-1 LTR: U38 cells (Felber BK, Pavlakis GN. Science 1988, 239:184-187) were cultured in the presence or absence of 10 ng/ml phorbol-12-myristate-13-acetate (PMA). U38 cells were derived from the monocytoid human cell line U937 and contain integrated copies of the HIV-1 LTR ligated to the chloramphenicol acetyl transferase (CAT) gene. These cells have been kindly provided by Dr. Barbara Felber (National Cancer Institute, Frederick, Maryland, USA). Two hours later, the cells were washed once in phosphate-buffered saline (PBS) and cultured in the presence of various concentrations of pentoxifylline. After 2 days, cell viability was tested by trypan blue staining, and the activity of CAT was measured as described previously (Sodroski, J. et al., Science 1985, 227:171-173) after standardizing the cell extracts for protein content.

[1] = system: peripheral blood mononuclear cells (PBM); format: cell-based; conditions: human, 7 days
Description: (§2) Human peripheral blood mononuclear cells (PBM) were obtained by Ficoll-Hypaque gradient centrifugation of blood donated by normal HIV-1 sero-negative individuals. PBM were cultured in RPMI-1640 supplemented with 20% fetal calf serum, penicillin, streptomycin and L-glutamine. After stimulating cells overnight with 15 µg/ml of concanavalin A, they were maintained in 10 units/ml interleukin-2 (IL-2) for the duration of the assay. To test for the inhibition of HIV-1 replication in PBM by pentoxifylline, PBM were pretreated with various concentrations of pentoxifylline for 4 hours after which HIV-1 (10⁴ cpm units of RT activity) was added to the cultures. The cells remained in the appropriate concentrations of the drug for a total of 7 days at which point the RT activity was measured in cell-free supernatants. In parallel, the cytotoxicity was analyzed by trypan blue staining of uninfected PBM treated for 7 days with various concentrations of pentoxifylline. The results are expressed as percent of untreated controls.

HIV-1 [2] = test: HIV-1 replication in acutely infected Jurkat cells, reverse transcriptase activity in cell-free supernatants; format: cell-based; conditions: for Reverse Transcriptase (% control): Jurkat cells, 4 h pretreatment, 7 days
Description: as §1

HIV-1 [3] = test: HIV-1 replication in acutely infected peripheral blood mononuclear cells, reverse transcriptase activity in cell-free supernatants; format: cell-based; conditions: for Reverse Transcriptase (% control): PBM, 4 h pretreatment, 7 days
Description: as §2

## CC(=O)CCCCn1c(=O)c2c(ncn2C)n(C)c1=O [Pentoxifylline, pentoxifylline]
Jurkat cells
  Cell viability: > 95%
HIV-1 LTR; Phorbol ester-non-stimulated, pentoxifylline 50 micromolar
  CAT activity: 4.91
HIV-1 LTR; Phorbol ester-non-stimulated, pentoxifylline 100 micromolar
  CAT activity: 3.75
HIV-1 LTR; Phorbol ester-non-stimulated, pentoxifylline 500 micromolar
  CAT activity: 2.95
HIV-1 LTR; Phorbol ester-non-stimulated, pentoxifylline 1000 micromolar
  CAT activity: 2.81
HIV-1 LTR; Phorbol ester-stimulated (10 ng/ml PMA), pentoxifylline 50 micromolar
  CAT activity: 50.4
HIV-1 LTR; Phorbol ester-stimulated (10 ng/ml PMA), pentoxifylline 100 micromolar
  CAT activity: 23.9
HIV-1 LTR; Phorbol ester-stimulated (10 ng/ml PMA), pentoxifylline 500 micromolar
  CAT activity: 20.3
HIV-1 LTR; Phorbol ester-stimulated (10 ng/ml PMA), pentoxifylline 1000 micromolar
  CAT activity: 19.5
HIV-1 LTR; U38 cells, whether or not first pretreated with phorbol ester
  chloramphenicol transacetylase activity (CAT): decreased
[1]; 50 micromolar
  Viability (% control): 93.5 % control
[1]; 500 micromolar
  Viability (% control): 84.8 % control
[1]; 1000 micromolar
  Viability (% control): 50.0 % control
HIV-1 [2]; Jurkat cells acutely infected with HIV
  HIV-1 replication as measured by reverse transcriptase activity: decreased
HIV-1 [2]; pentoxifylline 50 micromolar
  Reverse Transcriptase (% control): 84.6 % control
HIV-1 [2]; pentoxifylline 100 micromolar
  Reverse Transcriptase (% control): 72.9 % control
HIV-1 [2]; pentoxifylline 500 micromolar
  Reverse Transcriptase (% control): 69.5 % control
HIV-1 [2]; pentoxifylline 1000 micromolar
  Reverse Transcriptase (% control): 55.0 % control
HIV-1 [3]; pentoxifylline 25 micromolar
  Reverse Transcriptase (% control): 75.5 % control
HIV-1 [3]; pentoxifylline 50 micromolar
  Reverse Transcriptase (% control): 72.9 % control
HIV-1 [3]; pentoxifylline 250 micromolar
  Reverse Transcriptase (% control): 30.0 % control
HIV-1 [3]; pentoxifylline 500 micromolar
  Reverse Transcriptase (% control): 22.7 % control
HIV-1 [3]; pentoxifylline 1000 micromolar
  Reverse Transcriptase (% control): 18.6 % control
HIV-1 [3]; peripheral blood mononuclear cells acutely infected with HIV-1
  HIV-1 replication as measured by reverse transcriptase activity: decreased
